Data on six molecules can be found in patent US20130189248A1, “EGFR INHIBITOR AND ANTIVIRAL AGENT FOR SIMULTANEOUS, SEPARATE OR SEQUENTIAL USE IN THE TREATMENT AND/OR PREVENTION AND/OR PALLIATION OF CANCER” (priority 2010, published 2013).

Data set [1] deals with viral DNA polymerase. To be noted: cited from earlier work.
The subject of data set [2] is Me180 cells (human HPV-positive cervical carcinoma cells). Put plainly: Clonogenicity test on Me180 cells (with Bliss additivity model). The format is cell-based. As to the method: (§1) The cell lines are available from the American Type Culture Collection (ATCC): • HeLa cells (human HPV-positive cervical carcinoma cells): ATCC n° CCL-2; • Me180 cells (human HPV-positive cervical carcinoma cells): ATCC n° HTB-33; • C33A cells (human HPV-negative cervical carcinoma cells): ATCC n° HTB-31. • H460 cells (human HPV-negative lung carcinoma cells): ATCC n° HTB-177.
Me180 cells were grown in the GIBCO® McCoy's 5A medium (available from Invitrogen under catalog reference number 26600023), supplemented with 10% FCS, 1% penicillin/streptomycin and 1% glutamine.
(§2) The cell lines were grown in humid incubators at 37° C. under 5% CO2.
(§3) Each of said treatments last the 10-15 days of the clonogenic assay.
(§4) The culture medium has not been replaced during the assay.
(§5) The cultures were stopped by fixing and staining with crystal violet (methanol 80%, formaldehyde 10%, crystal violet 1.25 g), when the clones reached 50 cells. The clones were then counted and related to the number of cells cultured to obtain the fraction of surviving cells.
(§6) The Bliss additivity model was used to classify the effect of the drug combination as synergistic, additive or antagonist.
(§7) A theoretical curve of the expected effect of the combination was calculated from the equation:
(§8) Bliss effect=effect A+effect B−effect A×effect B,
(§9) where effect A and effect B are the effects of drugs A and B alone at specific concentrations.
(§10) Here, the Bliss effect is the expected effect when the combination of the two drugs is exactly additive. If the observed effect (the experimentally measured effect of the combination) is lower than the Bliss effect, the effect of the combination is said to be antagonist (delta=observed effect−Bliss effect is a negative value). If the observed effect is greater than the Bliss effect, the effect of the combination is synergistic (delta is positive).
(§11) The data are expressed as a percentage decrease in cell viability beyond that which would be expected if the association were strictly additive.

Data set [3] concerns C33A cells (human HPV-negative cervical carcinoma cells). The format is cell-based. As to the method:
as §1, §2, §3, §4, §5, §6, §7, §8, §9, §10, §11

The test system of data set [4] is HeLa cells (human HPV-positive cervical carcinoma cells). Description: Clonogenicity test on HeLa cells (with Bliss additivity model). The format is cell-based. As to the method: as §1
The HeLa cells contained 10-50 copies of integrated HPV18.
as §2, §3, §4, §5, §6, §7, §8, §9, §10, §11

For data set [5], the system named is herpesvirus polymerases. Conditions: cited from earlier work.
The conditions of data set [6]: human, in vivo; cited from earlier work.
Data set [7] deals with H460 cells (human HPV-negative lung carcinoma cells). Put plainly: Clonogenicity test on H460 cells. It is filed as cell-based. Conditions: H460 (printed H480); cidofovir alone (10 μg/mL, FIG. 4A). Here is the method: as §1, §2, §3, §4, §5
Data set [8] relates to Me180 xenograft. Description: Me180 xenograft in mice. It is filed as in vivo. Conditions: cidofovir, cetuximab alone or combined.
The conditions of data set [9]: cidofovir 3 mg/kg, AIDS patients with CMV retinitis, after 1 hour of infusion; cited from earlier work.
The test system of data set [10] is HeLa xenograft. Description: HeLa xenograft in female nude mice. The format is in vivo. To be noted: cidofovir i.p. days 1-5, cetuximab i.p. 1 mg/mouse days 1, 4, 7, alone or combined. Here is the method: Unless otherwise indicated, materials and methods are those described in example 1 above. The in vivo experiments were carried out at the Institut Gustave Roussy (94805 Villejuif; France), with the approval of the French Ministry of Agriculture.
10- to 12-week old female nude mice were injected subcutaneously (into the flank) with 2×10^6 live HeLa cells suspended in 100 μL of culture medium without Fetal Calf Serum (FCS) to study tumor growth. […] Tumor volume and weight were monitored twice a week. The mice were sacrificed when the tumor reached ten times the initial volume.

The mark [11] stands for this setting: foscarnet sodium alone 200 μM/mL, listed as Foscarnet.
Where [12] appears, read: foscarnet sodium alone 200 μM/mL, listed as Foscarnet sodium.
Setting [13] is: erlotinib alone 0.1 μM/mL, listed as Erlotinib.

Like-named read-outs stand apart in the source and are kept apart here.

Turning to `Nc1nc2c(ncn2COCCOP(=O)(O)OP(=O)(O)OP(=O)(O)O)c(=O)[nH]1` [Acyclo-GTP, acyclo-guanosine triphosphate], the “times greater affinity for viral than cellular polymerase” value in [1] is given as “approximately 100 times”.
`O=C(O)P(=O)(O)O` [foscarnet, phosphonoformic acid]: the “reduction in clonogenicity compared to the control / Decrease in living cells (%)” value was “minus 35%” in data set [2] (setting [11]); 35% in data set [2] (setting [12]); “minus 20%” in data set [3] (setting [11]); 20% in data set [3] (setting [12]); “minus 20%” in data set [4] (setting [11]); 20% in [4] (setting [12]).
For the molecule Cidofovir diphosphate, the “fold lower concentration needed to inhibit herpesvirus polymerases than human cellular DNA polymerases” value in [5] is 8- to 600 fold.
Consider “Vectibix®: recombinant, fully human IgG2 kappa monoclonal antibody that binds specifically to the human EGFR”, for which, in data set [6], the “incidence of NCI-CTC grade 3-5 adverse reactions” value is recorded as 87%; the “patients with dermatologic toxicities” value was 89%; the “patients with severe dermatologic toxicities (NCI-CTC grade 3 and higher)” value is reported as 12%.
Consider `Nc1ccn(C[C@@H](CO)OCP(=O)(O)O)c(=O)n1` [cidofovir, 1-[(S)-3-hydroxy-2-(phophonomethoxy)propyl]cytosine dehydrate], for which, in [7], the “effect on cell survival” value was “no significant effect”. The “tumor growth compared to the control group” value in data set [8] is reported as “does not reduce tumor growth”. Besides, the “concentration at which the drug alone had an effect on the cells” value in [2] (cidofovir alone) is “at least 1 μg/mL”. Further, the “reduction in cell survival (clonogenicity) compared to the control” value in data set [2] (cidofovir alone 1 μg/mL) was “about 30%”. In addition, the figures for the “reduction in clonogenicity compared to the control / Decrease in living cells (%)” value in [2] (cidofovir alone 5 μg/mL) and in data set [4] (cidofovir alone 5 μg/mL) were 40% and 15%, respectively. For the same molecule, the plasmatic concentration in [9] was 7.6 ± 1.4 µg/mL. Also, the “reduction in cell survival compared to the control” value in [3] (cidofovir alone 1 μg/mL) was “about 20%”. Also, the “reduction in cell survival / clonogenicity compared to the control / Decrease in living cells (%)” value in data set [3] (cidofovir alone 5 μg/mL) was “minus 20%”. Moreover, the “tumor growth (tumor volume) compared to the control group” value in data set [10] was “does not reduce tumor growth”. The “concentration at which the drug alone had an effect on clonogenicity” value in [4] (cidofovir alone) is recorded as “at least 5 μg/mL”. In addition, in data set [4] (cidofovir alone 10 μg/mL), the “reduction in clonogenicity compared to the control” value amounted to 25%. The clonogenic survival result in data set [4] (cidofovir alone at 1 μg/mL) was “about 100%”.
For `C#Cc1cccc(Nc2ncnc3cc(OCCOC)c(OCCOC)cc23)c1` [erlotinib, N-(3-ethynylphenyl)-6,7-bis(2-methoxyethoxy)-4-quinazolinamine], the “reduction in clonogenicity compared to the control / Decrease in living cells (%)” value in data set [2] (erlotinib alone 0.1 μM/mL) is recorded as “minus 50%”; in [2] (setting [13]), 50%; in data set [2] (erlotinib alone 0.5 μM/mL), “minus 80%”; in data set [2] (erlotinib alone 0.5 μM/mL, listed as Erlotinib), 80%; in data set [3] (erlotinib alone 0.1 μM/mL), “minus 10%”; in data set [3] (setting [13]), 10%. In addition, the “reduction in clonogenicity compared to the control / Decrease in living cells (%)” value in data set [4] (erlotinib alone 0.1 μM/mL) is recorded as “minus 50%”; in data set [4] (setting [13]) it was 50%.
